Data on three molecules can be found in patent publication US6433012B1, “Method for inhibiting inflammatory disease” (Large Scale Biology Corp., priority 1998, dated 2002).

Series [1] deals with angiogenesis induced by hFGF-B in the chick chorioallantoic membrane (CAM). Put plainly: Chick chorioallantoic membrane (CAM) assay, 14C-proline incorporation into collagenous protein. Format: in vivo. Further details: inhibition of hFGF-B-induced angiogenesis: dose or concentration left out as unconfirmed. An excerpt:
This example illustrates the anti-angiogenic properties of methyl-3,5-diiodo-4-(4′-methoxyphenoxy)benzoate in the chick chorioallantoic membrane assay (CAM). The endpoint of the CAM assay was a quantitative determination of basement membrane biosynthesis by measuring the incorporation of ^14C-proline into Type IV collagenous protein.
The CAM assay involves the development of live chick embryos in Petri dishes under special sterile conditions. Therefore, only limited numbers of embryos can be used for evaluation of compounds in a single experiment. For this reason, two separate assays were conducted to test the three Biosource compounds at three concentrations per compound. In this assay, a known angiogenesis inhibitor, 2-methoxyestradiol (2-ME), was used as the positive control, and human fibroblast growth factor (hFGF) was used to induce angiogenesis in the CAM.
For testing, a minimum amount of acetone-methanol (1:1) was added to the test compounds for sterilization. The acetone-methanol mixture was then evaporated to dryness in a sterile hood. The compounds were dissolved dimethyl sulfoxide (DMSO) first and then diluted with saline containing methylcellulose. The final concentrations were 2% DMSO and 0.5% methylcellulose. All test solutions were added to each CAM in […].
Fresh fertile eggs were incubated for three days in a standard egg incubator. On Day 3, eggs were cracked under sterile conditions and embryos were placed in 20×100 mm plastic Petri dishes and cultivated at 37° C. in an embryo incubator with a water reservoir on the bottom shelf. Air was continuously bubbled into the water reservoir by using a small pump so that the humidity in the incubator was kept constant. Observations were made daily to ensure that all embryos were healthy. Dead or unhealthy embryos were removed from the incubator immediately to avoid contamination. On Day 9, a sterile silicone ring cup was placed on each CAM and […] of ^14C-proline with or without the test compound plus 2.5 ng of hFGF dissolved in saline containing 0.5% methylcellulose was delivered into each ring cup in a sterile hood. 2-ME was tested in parallel to serve as a reference compound. After addition of test materials, the embryos were returned to the incubator and cultivation continued. On Day 12, all embryos were transferred to a cold room at 4-10° C. The antiangiogenic effect of each test compound was determined by using the collagenase assay (Maragoudakis, et al., J. Pharm. Exp. Ther. 251:679-682 (1989)) to measure ^14C-proline incorporation into collagenous protein.
With the embryos placed on ice, a piece of CAM 10 mm in diameter was cut off under each ring cup and placed in a separate tube. To each tube was added 1.0 mL of phosphate-buffered saline (PBS, pH 7.3) containing 0.11 mg cycloheximide and 0.17 mg dipyridyl. The tubes were placed in a boiling water bath for 10 min and then cooled to room temperature. The PBS in each tube was discarded after centrifugation at 3000× g for 10 min. The CAM residue was washed once with 3 mL of 15% TCA and then three times with 3 mL of 5% TCA. Centrifugation was carried out as described above between each washing. At this point all non-protein bound radioactivity was removed, and the CAM containing the newly synthesized ^14C-collagenous protein was suspended in 0.9 mL of 0.1 N NaOH and 1.1 mL of HEPES buffer at pH 7.4. The pH of the sample was neutralized with 0.8 N HCl, using phenol red as indicator.
To digest the ^14C-collagenous protein, 7.5 units of collagenase and 500 nmol of calcium chloride in […] of HEPES buffer was added to the above samples, and mixtures were incubated at 37° C. for 4 h. The reaction was stopped by adding 1.0 mL of 20% TCA containing 5 mg of tannic acid into each tube. After vortex mixing, the samples were centrifuged at 3000× g for 10 min. […]

The test system of series [2] is MCF-7 human breast carcinoma cells. Put plainly: Chromosome condensation / prometaphase arrest. Format: cell-based. The following applies: 1 μM for 24 h.
Series [3] concerns TNF-α mRNA in murine macrophage PU5-1.8 cell line. The series is described as follows: TNF-α mRNA in LPS-stimulated macrophages (Northern blot). The class given is cell-based. As to the method:
The murine macrophage PU5-1.8 cell line was purchased from the American Type Culture Collection (ATCC, Rockville, Md.). Cells were grown in DMEM medium supplemented with […], 0.1 mM nonessential amino acids, 2 mM glutamine and 5% fetal bovine serum (Life Technologies, Staten Island, N.Y.). Cells were maintained in a humidified atmosphere of 5% CO2-95% air at 37° C. Cells were passages twice weekly by firmly tapping the side of the flask to dislodge the adherent cells. Both nonadherent and adherent cells were passages. Exponentially growing cells were seeded at 5×10 ^5/mL, 4mL per 60-mm dish 24 h prior to the experiment. Test compounds were delivered in 1 mL volumes of the medium added to each dish at the start of the experiment. All dishes were incubated at 37° C. in 5% CO2-95% air for 3 h.
Total RNA was isolated by the guanidinium-cesium chloride method as described in N. S. Waleh, J. Gallo, T. D. Grant, B. J. Murphy, R. H. Kramer and R. M. Sutherland. (1994) “Selective downregulation of integrin receptors in spheroids of squamous cell carcinoma” Cancer Res., 54:838-843. Five to 10 μg of total RNA was electrophoresed in 1% agarose gels containing 6% formaldehyde. Following electrophoresis, gels were stained with ethidium bromide to visualize the positions of 28S and 18S RNA. The RNAs were then transferred to nylon membranes (Amersham Hybond N) by capillary blotting and fixed to the filter by exposure to UV light. The blots were probed with ^32P-labeled cDNA sequences of human TNF-α obtained from the American Type Culture Collection (ATCC). The TNF-α cDNA was a 1.1 kb PstI fragment of plasmid pE4 in E. coli MM294 (ATCC 39894). Hybridizations were carried out at 42° C. in 50% formamide, 5×SSC, 5×Denhardt's solution, 0.1% SDS, and 0.3 mg/mL salmon sperm DNA. Filters were washed by 1×SSC, 0.1% SDS, twice at room temperature for 15 min and once at 55° C. in 0.1×SSC, 0.1% SDS for 1 hr. Filters were exposed to X-ray film at −70° C. using an intensifying screen (Coronex Hi-Plus).
Hybridized bands were quantified by analyzing the images obtained by using a video densitometer (Applied Imaging Corporation, Santa Clara, Calif.). Film densities were calibrated using an optical-density wedge.

The subject of a further series is purified tubulin. As to conditions: as a function of colchicine or vinblastine concentration. An excerpt:
Tubulin-binding antimitotic drugs interact with the protein at diverse sites.

The mark [4] stands for this setting: Table 1 experiment, dose 8.3 μg/CAM.
[5] abbreviates: Table 1 experiment, dose 25 μg/CAM.
The mark [6] stands for this setting: Table 1 experiment, dose 75 μg/CAM.
Setting [7] is: Table 2 experiment, dose 8.3 μg/CAM.
Setting [8] is: Table 2 experiment, dose 25 μg/CAM.
Where [9] appears, read: Table 2 experiment, dose 75 μg/CAM.

Structures are written as SMILES. Marks after values point to notes of the source that are not given here.

`COc1cc2c(cc1O)CC[C@@H]1[C@@H]2CC[C@]2(C)[C@@H](O)CC[C@@H]12` [2-Methoxyestradiol, 2-methoxyestradiol, reference compound]: the “inhibition of hFGF-B-induced angiogenesis” value in series [1] was 38%. Moreover, the % Inhibition (commonly how much of the control response was suppressed) in series [1] (setting [4]) was 9%; in series [1] (setting [5]), 20%; in series [1] (setting [6]), 38%; in series [1] (setting [7]) it was 6%; in series [1] (setting [8]), 35%; in series [1] (setting [9]) it was 38%. Besides, the “^14C-Proline Incorporated into Collagenous Protein (mean ± S.E.)” value in series [1] (setting [4]) is recorded as 5711 ± 1469 cpm/mg-protien; in series [1] (setting [5]), 5068 ± 1609 cpm/mg-protien; in series [1] (setting [6]), 3875 ± 891 cpm/mg-protien; in series [1] (setting [7]), 10499 ± 1372 cpm/mg-protien; in series [1] (setting [8]) it was 7303 ± 1424 cpm/mg-protien; in series [1] (setting [9]) it was 6984 ± 1022^b cpm/mg-protien.

As to `COc1cc2c(c(OC)c1OC)-c1ccc(OC)c(=O)cc1[C@@H](NC(C)=O)CC2` [colchicine, reference compound], the “chromosome condensation (prometaphase arrest)” value in series [2] is on record as “produced identical chromosome condensation patterns”. In addition, the “inhibition of TNF-α mRNA accumulation” value in series [3] (10 μM added to LPS (100 ng/mL) treated cultures, 3 h) is given as 68%. In addition, the “effect on TNF-α mRNA expression, compound only” value in series [3] (10 μM, without LPS, 3 h) is recorded as “no effect”. Moreover, the “total RNA integrity” value in series [3] (cells treated with different concentrations) is on record as “intact”.

As to `CC[C@]1(O)C[C@@H]2CN(CCc3c([nH]c4ccccc34)[C@@](C(=O)OC)(c3cc4c(cc3OC)N(C)[C@H]3[C@@](O)(C(=O)OC)[C@H](OC(C)=O)[C@]5(CC)C=CCN6CC[C@]43[C@@H]65)C2)C1` [vinblastine], the “effect of competitor on binding of 14C-labeled BTO-956 to tubulin” value in the series with purified tubulin is recorded as “had no effect”.
